Assay results: PubChem BioAssay AID248 (DTP/NCI, 2004)
Values joined by “and” are separate entries in the source; they are usually repeats but may differ in a detail not shown here. Equal entries are not always repeated. Toxic doses and inconclusive results are not listed. Rule as the data show it: active = T/C of 150% or more; inactive = T/C below 125%.

Tested on: L1210 leukemia ip in BDF1 mice, survival T/C
Test: NCI In Vivo Anticancer Drug Screen. Data for tumor model L1210 Leukemia (intraperitoneal) in B6D2F1 (BDF1) mice
Settings: endpoint: mean survival time, higher = longer survival
Summary of the method: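 Each compound was tested against a transplantable tumor grown in mice. The endpoint was survival, with treated animals benchmarked against vehicle controls as a simple ratio.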

[1] = dose: 100.0 mg/kg/injection, schedule: Q01DX009 (ip), vehicle: saline with Tween-80
[2] = dose: 75.0 mg/kg/injection, schedule: Q01DX001 (ip), vehicle: saline
[3] = dose: 150.0 mg/kg/injection, schedule: Q01DX001 (ip), vehicle: saline
[4] = dose: 100.0 mg/kg/injection, schedule: Q04DX003 (ip), vehicle: Klucel (hydroxypropylcellulose) (HPC)
[5] = dose: 200.0 mg/kg/injection, schedule: Q04DX003 (ip), vehicle: Klucel (hydroxypropylcellulose) (HPC)
[6] = dose: 100.0 mg/kg/injection, schedule: Q04DX002 (ip), vehicle: Klucel (hydroxypropylcellulose) (HPC)
[7] = dose: 200.0 mg/kg/injection, schedule: Q04DX002 (ip), vehicle: Klucel (hydroxypropylcellulose) (HPC)
[8] = dose: 100.0 mg/kg/injection, schedule: Q01DX001 (ip), vehicle: carboxymethylcellulose (CMC)
[9] = dose: 200.0 mg/kg/injection, schedule: Q01DX001 (ip), vehicle: carboxymethylcellulose (CMC)
[10] = dose: 100.0 mg/kg/injection, schedule: Q04DX003 (ip), vehicle: saline
[11] = dose: 200.0 mg/kg/injection, schedule: Q04DX003 (ip), vehicle: saline
[12] = dose: 100.0 mg/kg/injection, schedule: Q01DX001 (ip), vehicle: saline
[13] = dose: 200.0 mg/kg/injection, schedule: Q01DX001 (ip), vehicle: saline
[14] = dose: 400.0 mg/kg/injection, schedule: Q01DX001 (ip), vehicle: saline

Measured: T/C

C/C(=N\O)C(C)C
inactive: dose: 100.0 mg/kg/injection, schedule: Q01DX001 (ip), vehicle: saline with Tween-80 93 % of control | [1] 100 % of control | dose: 200.0 mg/kg/injection, schedule: Q01DX001 (ip), vehicle: saline with Tween-80 101 % of control | dose: 200.0 mg/kg/injection, schedule: Q01DX009 (ip), vehicle: saline with Tween-80 98 % of control | dose: 400.0 mg/kg/injection, schedule: Q01DX001 (ip), vehicle: saline with Tween-80 98 % of control | dose: 400.0 mg/kg/injection, schedule: Q01DX009 (ip), vehicle: saline with Tween-80 92 % of control

CC(COC(=O)c1ccccc1)NC1CCCC1 (stereo not drawn)
inactive: dose: 75.0 mg/kg/injection, schedule: Q01DX001 (ip), vehicle: other 96 % of control | dose: 150.0 mg/kg/injection, schedule: Q01DX001 (ip), vehicle: other 108 % of control | dose: 300.0 mg/kg/injection, schedule: Q01DX001 (ip), vehicle: other 107 % of control

CCCCCC(=O)NNC(=O)CCCCC
inactive: [2] 91 % of control | [3] 91 % of control | dose: 300.0 mg/kg/injection, schedule: Q01DX001 (ip), vehicle: saline 94 % of control

CC(=O)Nc1cccc(N=Cc2ccc(N(CCOS(C)(=O)=O)CCOS(C)(=O)=O)cc2C)c1
inactive: dose: 8.0 mg/kg/injection, schedule: Q01DX009 (ip), vehicle: saline with Tween-80 120 % of control

C[Si](C)(CCCC(N)C(=O)O)O[Si](C)(C)CCCC(N)C(=O)O (stereo not drawn)
inactive: [4] 98 % of control | [5] 100 % of control | dose: 400.0 mg/kg/injection, schedule: Q04DX003 (ip), vehicle: Klucel (hydroxypropylcellulose) (HPC) 98 % of control

Cc1cccc(NC(=O)C2CCC(CC3CCCCC3)CC2)c1 (stereo not drawn)
inactive: dose: 50.0 mg/kg/injection, schedule: Q01DX001 (ip), vehicle: Klucel (hydroxypropylcellulose) (HPC) 89 % of control | dose: 100.0 mg/kg/injection, schedule: Q01DX001 (ip), vehicle: Klucel (hydroxypropylcellulose) (HPC) 89 % of control | dose: 200.0 mg/kg/injection, schedule: Q01DX001 (ip), vehicle: Klucel (hydroxypropylcellulose) (HPC) 87 % of control

[Cl][Cu][Cl]
inactive: dose: 3.13 mg/kg/injection, schedule: Q01DX009 (ip), vehicle: saline 100 % of control | dose: 6.25 mg/kg/injection, schedule: Q01DX009 (ip), vehicle: saline 95 % of control | dose: 6.25 mg/kg/injection, schedule: Q04DX003 (ip), vehicle: saline 102 % of control | dose: 12.5 mg/kg/injection, schedule: Q01DX009 (ip), vehicle: saline 90 % of control | dose: 12.5 mg/kg/injection, schedule: Q04DX003 (ip), vehicle: saline 107 % of control

O=C(O)COc1ccc(Cl)cc1I
inactive: [6] 120 % of control | [7] 97 % of control

O=C(Cc1ccccc1)Nc1ccc([N+](=O)[O-])cc1Cl
inactive: dose: 25.0 mg/kg/injection, schedule: Q01DX009 (ip), vehicle: saline with Tween-80 103 % of control | dose: 50.0 mg/kg/injection, schedule: Q01DX009 (ip), vehicle: saline with Tween-80 103 % of control | [1] 94 % of control and 100 % of control | dose: 100.0 mg/kg/injection, schedule: Q04DX002 (ip), vehicle: saline with Tween-80 104 % of control | dose: 150.0 mg/kg/injection, schedule: Q01DX009 (ip), vehicle: saline with Tween-80 92 % of control | dose: 200.0 mg/kg/injection, schedule: Q04DX002 (ip), vehicle: saline with Tween-80 101 % of control | dose: 225.0 mg/kg/injection, schedule: Q01DX009 (ip), vehicle: saline with Tween-80 97 % of control | dose: 335.0 mg/kg/injection, schedule: Q01DX009 (ip), vehicle: saline with Tween-80 103 % of control | dose: 400.0 mg/kg/injection, schedule: Q04DX002 (ip), vehicle: saline with Tween-80 96 % of control

Cc1cc(/C=N/N2CCN(/N=C/c3cc(C)n(-c4ccccc4)c3C)CC2)c(C)n1-c1ccccc1
inactive: [8] 95 % of control | [9] 88 % of control | dose: 400.0 mg/kg/injection, schedule: Q01DX001 (ip), vehicle: carboxymethylcellulose (CMC) 90 % of control

Cc1ccccc1N=Nc1c(O)n(-c2ccc(I)cc2)c(=S)n(-c2ccccc2)c1=O
inactive: dose: 37.5 mg/kg/injection, schedule: Q01DX001 (ip), vehicle: Klucel (hydroxypropylcellulose) (HPC) 103 % of control | dose: 75.0 mg/kg/injection, schedule: Q01DX001 (ip), vehicle: Klucel (hydroxypropylcellulose) (HPC) 113 % of control | dose: 150.0 mg/kg/injection, schedule: Q01DX001 (ip), vehicle: Klucel (hydroxypropylcellulose) (HPC) 105 % of control

CC(=O)OC1COC(SC(=N)N)C(OC(C)=O)C1OC(C)=O (stereo not drawn)
inactive: dose: 75.0 mg/kg/injection, schedule: Q01DX001 (ip), vehicle: water 101 % of control and 104 % of control | dose: 150.0 mg/kg/injection, schedule: Q01DX001 (ip), vehicle: water 104 % of control and 103 % of control | dose: 300.0 mg/kg/injection, schedule: Q01DX001 (ip), vehicle: water 97 % of control and 95 % of control

Cc1ccc(/C=N/NC(=O)c2ccc(N=NN(C)C)cc2)cc1
inactive: dose: 50.0 mg/kg/injection, schedule: Q04DX003 (ip), vehicle: Klucel (hydroxypropylcellulose) (HPC) 95 % of control | [4] 99 % of control | [5] 100 % of control

CCOC(=O)c1cc(N)c[nH]1
inactive: dose: 50.0 mg/kg/injection, schedule: Q01DX009 (ip), vehicle: saline 109 % of control | dose: 100.0 mg/kg/injection, schedule: Q01DX009 (ip), vehicle: saline 96 % of control | [10] 89 % of control | dose: 200.0 mg/kg/injection, schedule: Q01DX009 (ip), vehicle: saline 96 % of control | [11] 94 % of control

CCCCCCCC(=O)NCCCCC
inactive: dose: 50.0 mg/kg/injection, schedule: Q01DX001 (ip), vehicle: carboxymethylcellulose (CMC) 98 % of control | dose: 50.0 mg/kg/injection, schedule: Q01DX009 (ip), vehicle: carboxymethylcellulose (CMC) 97 % of control and 113 % of control | dose: 50.0 mg/kg/injection, schedule: Q04DX003 (ip), vehicle: carboxymethylcellulose (CMC) 103 % of control | [8] 105 % of control | dose: 100.0 mg/kg/injection, schedule: Q01DX009 (ip), vehicle: carboxymethylcellulose (CMC) 108 % of control | dose: 100.0 mg/kg/injection, schedule: Q04DX002 (ip), vehicle: carboxymethylcellulose (CMC) 94 % of control | dose: 100.0 mg/kg/injection, schedule: Q04DX003 (ip), vehicle: carboxymethylcellulose (CMC) 96 % of control | [9] 100 % of control | dose: 200.0 mg/kg/injection, schedule: Q01DX009 (ip), vehicle: carboxymethylcellulose (CMC) 104 % of control and 90 % of control | dose: 200.0 mg/kg/injection, schedule: Q04DX002 (ip), vehicle: carboxymethylcellulose (CMC) 96 % of control | dose: 200.0 mg/kg/injection, schedule: Q04DX003 (ip), vehicle: carboxymethylcellulose (CMC) 98 % of control | dose: 400.0 mg/kg/injection, schedule: Q04DX002 (ip), vehicle: carboxymethylcellulose (CMC) 96 % of control

O=C1CCC2C3CCC(=O)C3C12 (stereo not drawn)
inactive: [2] 102 % of control | [3] 97 % of control

Cc1ccc(NC(=O)NNC(=O)CCCC(=O)NNC(=O)Nc2ccc(C)cc2)cc1
inactive: dose: 50.0 mg/kg/injection, schedule: Q01DX001 (ip), vehicle: saline 96 % of control | [12] 102 % of control | [13] 96 % of control | [14] 96 % of control

O=C(NCCCN1CC1)C(=O)Nc1ccccn1
inactive: [4] 102 % of control | [5] 86 % of control

CCCNC(=O)Nc1ccc(OCC)cc1
inactive: [6] 105 % of control | [7] 115 % of control | dose: 400.0 mg/kg/injection, schedule: Q04DX002 (ip), vehicle: Klucel (hydroxypropylcellulose) (HPC) 105 % of control

CCCCC#CCl
inactive: [12] 101 % of control | [13] 94 % of control | [14] 94 % of control

CCN(CC)CCNC(C)=O
inactive: [10] 104 % of control | [11] 101 % of control | dose: 400.0 mg/kg/injection, schedule: Q04DX003 (ip), vehicle: saline 97 % of control

CC(=O)Nc1c([N+](=O)[O-])ccc(Cl)c1Cl
inactive: [4] 98 % of control | [5] 97 % of control
